From ChEMBL document CHEMBL5233233, “Histone deacetylase 3 (HDAC3) inhibitors as anticancer agents: A review” (Eur J Med Chem, 2020)

Legend:
[1] = molecular target: T1, Histone deacetylase 3 (Homo sapiens, UniProt O15379); assay: Inhibition of HDAC3 (unknown origin) at 10 uM
[2] = molecular target: T1, Histone deacetylase 3; assay: Inhibition of HDAC3 (unknown origin) at 5uM
[3] = molecular target: T2, Histone deacetylase 1 (Homo sapiens, UniProt Q13547); assay: Inhibition of human recombinant HDAC1 using Fluor-de-Lys as substrate at 50 uM for 30 mins by fluorescence based assay
[4] = molecular target: T3, Histone deacetylase 2 (Homo sapiens, UniProt Q92769); assay: Inhibition of human recombinant HDAC2 using Fluor-de-Lys as substrate at 50 uM for 30 mins by fluorescence based assay
[5] = molecular target: T4, Protein deacetylase HDAC6 (Homo sapiens, UniProt Q9UBN7); assay: Inhibition of human recombinant HDAC6 using Fluor-de-Lys as substrate at 50 uM for 30 mins by fluorescence based assay
T4 sequence (Q9UBN7 whole entry): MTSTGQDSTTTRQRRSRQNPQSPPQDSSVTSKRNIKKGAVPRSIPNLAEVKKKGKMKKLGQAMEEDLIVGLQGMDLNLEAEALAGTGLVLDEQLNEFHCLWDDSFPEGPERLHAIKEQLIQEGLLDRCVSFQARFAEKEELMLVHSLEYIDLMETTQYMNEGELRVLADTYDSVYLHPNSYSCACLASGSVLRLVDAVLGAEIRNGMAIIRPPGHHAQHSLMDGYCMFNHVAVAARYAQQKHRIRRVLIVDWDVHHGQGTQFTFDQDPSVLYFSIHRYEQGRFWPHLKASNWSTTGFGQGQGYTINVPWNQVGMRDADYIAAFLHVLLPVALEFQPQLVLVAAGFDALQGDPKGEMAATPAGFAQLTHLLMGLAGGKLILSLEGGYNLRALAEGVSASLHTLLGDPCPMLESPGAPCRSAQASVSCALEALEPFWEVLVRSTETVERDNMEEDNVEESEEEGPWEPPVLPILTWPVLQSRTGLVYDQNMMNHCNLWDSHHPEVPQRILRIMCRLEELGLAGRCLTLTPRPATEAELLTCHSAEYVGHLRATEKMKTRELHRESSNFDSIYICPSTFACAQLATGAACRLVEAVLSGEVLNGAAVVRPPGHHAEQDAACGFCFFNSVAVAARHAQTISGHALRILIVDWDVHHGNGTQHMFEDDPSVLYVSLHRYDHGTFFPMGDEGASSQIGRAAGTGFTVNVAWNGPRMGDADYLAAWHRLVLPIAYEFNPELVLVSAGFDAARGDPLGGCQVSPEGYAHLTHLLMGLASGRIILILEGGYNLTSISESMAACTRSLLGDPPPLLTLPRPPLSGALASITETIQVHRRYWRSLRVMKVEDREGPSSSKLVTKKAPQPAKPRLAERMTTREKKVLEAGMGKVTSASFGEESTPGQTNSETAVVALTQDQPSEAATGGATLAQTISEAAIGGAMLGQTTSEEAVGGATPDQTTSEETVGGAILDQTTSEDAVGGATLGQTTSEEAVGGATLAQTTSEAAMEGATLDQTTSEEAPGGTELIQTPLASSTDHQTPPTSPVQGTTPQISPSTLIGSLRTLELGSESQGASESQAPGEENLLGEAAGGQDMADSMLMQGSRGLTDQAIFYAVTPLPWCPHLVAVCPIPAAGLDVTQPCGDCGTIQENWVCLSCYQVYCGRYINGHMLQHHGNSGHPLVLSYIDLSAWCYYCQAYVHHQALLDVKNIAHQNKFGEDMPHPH

[6] = molecular target: T5, Polyamine deacetylase HDAC10 (Homo sapiens, UniProt Q969S8); assay: Inhibition of human recombinant HDAC10 using Fluor-de-Lys as substrate at 50 uM for 30 mins by fluorescence based assay
T5 sequence (Q969S8 whole entry): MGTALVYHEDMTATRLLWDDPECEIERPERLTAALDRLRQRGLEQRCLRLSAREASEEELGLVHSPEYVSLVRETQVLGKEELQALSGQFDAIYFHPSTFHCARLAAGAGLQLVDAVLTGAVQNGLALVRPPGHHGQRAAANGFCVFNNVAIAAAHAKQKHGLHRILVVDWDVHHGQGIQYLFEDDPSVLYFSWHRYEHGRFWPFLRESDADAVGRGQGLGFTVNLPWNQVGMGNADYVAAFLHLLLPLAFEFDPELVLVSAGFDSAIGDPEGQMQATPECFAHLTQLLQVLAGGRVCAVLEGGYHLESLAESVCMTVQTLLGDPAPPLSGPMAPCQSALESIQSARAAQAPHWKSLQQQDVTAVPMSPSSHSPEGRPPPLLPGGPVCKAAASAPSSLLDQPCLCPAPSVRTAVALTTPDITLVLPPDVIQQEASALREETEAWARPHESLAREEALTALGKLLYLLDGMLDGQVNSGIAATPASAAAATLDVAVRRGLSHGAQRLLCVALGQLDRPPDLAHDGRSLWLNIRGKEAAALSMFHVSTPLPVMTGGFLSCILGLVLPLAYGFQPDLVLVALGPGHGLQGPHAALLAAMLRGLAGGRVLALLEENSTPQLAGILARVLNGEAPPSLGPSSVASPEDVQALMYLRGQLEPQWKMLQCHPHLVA

[7] = molecular target: T2, Histone deacetylase 1; assay: Inhibition of human recombinant HDAC1 at 50 uM measured after 24 hrs by fluorometric analysis
[8] = molecular target: T3, Histone deacetylase 2; assay: Inhibition of recombinant HDAC2 (unknown origin) at 50 uM measured after 24 hrs by fluorometric based analysis
[9] = molecular target: T1, Histone deacetylase 3; assay: Inhibition of recombinant HDAC3 (unknown origin) measured after 24 hrs by fluorometric analysis
[10] = molecular target: T2, Histone deacetylase 1; assay: Inhibition of human HDAC1 by fluorescence based assay method
[11] = test system: PC-3; assay: Anticancer activity against human PC-3 cells assessed as reduction in cell viability; format: functional, cell-based
[12] = molecular target: T2, Histone deacetylase 1; assay: Inhibition of human recombinant HDAC1 using fluorogenic HDAC substrate measured after 20 mins by fluorescence assay
[13] = molecular target: T3, Histone deacetylase 2; assay: Inhibition of human recombinant HDAC2 using fluorogenic HDAC substrate measured after 20 mins by fluorescence assay
[14] = molecular target: T1, Histone deacetylase 3; assay: Inhibition of human HDAC3 using fluorogenic as substrate measured after 30 mins by fluorescence based analysis

T2 sequence (Q13547 whole entry): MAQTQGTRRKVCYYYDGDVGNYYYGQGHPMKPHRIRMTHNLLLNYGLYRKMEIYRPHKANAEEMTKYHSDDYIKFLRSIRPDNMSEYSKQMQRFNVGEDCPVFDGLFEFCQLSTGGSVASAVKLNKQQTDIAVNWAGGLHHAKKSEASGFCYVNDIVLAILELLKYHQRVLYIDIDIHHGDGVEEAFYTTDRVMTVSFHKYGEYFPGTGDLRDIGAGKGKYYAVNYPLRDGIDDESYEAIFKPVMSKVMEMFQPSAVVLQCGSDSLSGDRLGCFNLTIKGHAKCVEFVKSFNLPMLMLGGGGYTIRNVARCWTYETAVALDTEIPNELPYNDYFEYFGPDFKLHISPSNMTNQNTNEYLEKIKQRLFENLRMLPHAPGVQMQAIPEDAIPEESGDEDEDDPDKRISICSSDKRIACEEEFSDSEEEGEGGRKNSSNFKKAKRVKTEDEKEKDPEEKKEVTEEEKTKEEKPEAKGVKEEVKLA
T3 sequence (Q92769 whole entry): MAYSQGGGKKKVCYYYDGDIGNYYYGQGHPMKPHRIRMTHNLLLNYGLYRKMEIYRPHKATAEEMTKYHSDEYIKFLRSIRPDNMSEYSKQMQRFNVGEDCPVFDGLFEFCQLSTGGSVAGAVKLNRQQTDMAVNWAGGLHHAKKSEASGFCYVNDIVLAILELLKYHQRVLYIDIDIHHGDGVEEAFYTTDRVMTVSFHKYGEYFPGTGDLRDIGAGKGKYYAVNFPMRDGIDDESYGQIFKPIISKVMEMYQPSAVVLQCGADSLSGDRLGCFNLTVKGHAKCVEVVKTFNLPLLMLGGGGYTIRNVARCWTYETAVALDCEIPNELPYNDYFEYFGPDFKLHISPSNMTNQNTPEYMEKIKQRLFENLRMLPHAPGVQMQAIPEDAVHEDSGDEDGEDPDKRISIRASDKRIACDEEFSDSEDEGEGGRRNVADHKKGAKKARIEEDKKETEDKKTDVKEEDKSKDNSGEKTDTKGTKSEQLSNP
T1 sequence (O15379 whole entry): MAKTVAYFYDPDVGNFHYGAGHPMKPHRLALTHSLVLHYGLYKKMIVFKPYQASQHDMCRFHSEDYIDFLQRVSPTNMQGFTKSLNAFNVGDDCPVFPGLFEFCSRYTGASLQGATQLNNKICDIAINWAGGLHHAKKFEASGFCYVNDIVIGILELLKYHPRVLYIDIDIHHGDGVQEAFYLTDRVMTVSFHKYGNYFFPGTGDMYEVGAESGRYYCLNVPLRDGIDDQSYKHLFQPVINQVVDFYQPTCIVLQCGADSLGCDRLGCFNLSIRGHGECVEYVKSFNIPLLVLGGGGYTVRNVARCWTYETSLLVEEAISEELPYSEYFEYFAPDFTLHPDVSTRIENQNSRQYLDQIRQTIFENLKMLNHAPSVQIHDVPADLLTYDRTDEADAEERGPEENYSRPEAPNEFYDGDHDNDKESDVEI

Structure (SMILES): COc1ccc(C(=O)N[C@@H](Cc2c[nH]c3ccccc23)C(=O)Nc2ccc(C(=O)Nc3ccc(-c4cccs4)cc3N)cc2)cc1
- IC50 [1]: 62500 nM

Structure (SMILES): O=C(CCCCCCN1C=Cc2ccccc2C1)NO
- IC50 [2]: 97 nM

Structure (SMILES): Nc1ccccc1NC(=O)CCCCCCC(=O)NO
- IC50 [3]: 67.2 nM
- IC50 [4]: 101 nM
- IC50 [5]: 9.93 nM
- IC50 [6]: 49.3 nM

Structure (SMILES): Nc1ccc(F)cc1NC(=O)c1cc2ccccc2o1
- IC50 [7]: 1200 nM
- IC50 [8]: 1500 nM
- IC50 [9]: 80 nM

Structure (SMILES): Nc1ccccc1NC(=O)c1ccc(CNc2nc(-c3ccccc3)c(-c3ccccc3)o2)cc1
- IC50 [10]: 6 nM

Structure (SMILES): COc1ccccc1NC(=O)N[C@H](C(=O)Nc1ccc(C(=O)NO)cc1)c1ccccc1
- IC50 [11]: 1510 nM
- IC50 [12]: 4.8 nM
- IC50 [13]: 19.5 nM
- IC50 [14]: 5.9 nM
